Source: patent US6440417B1, “Antibodies to argatroban derivatives and their use in therapeutic and diagnostic treatments” (ConjuChem, Inc., priority 1998, dated 2002)

Legend:
rat plasma proteins = assay: Western blot of plasma from rats dosed in vivo; details: intravenous, 5 minutes and 24 hours after dosing
Procedure: Fifteen Sprague-Dawley rats weighing 250-300 grams were randomized for treatment with either argatroban and argatroban derivative. Rats treated with argatroban received dosages of either 3 or 10 mg/kg (n=6 and respectively) administered intravenously. […] A control group of rats was treated with intravenous injection of DMSO (0.2 ml/kg, n=3). The study was divided into two groups. Plasma samples were obtained from group 1 rats at time periods of 5 min, 15 min, and 24 hrs after injection. Plasma samples were obtained from group 2 rats at 1 hr, 3 hr and 24 hr following injection. […] The collected plasma samples from these rats were frozen for subsequent evaluation of the extent of conjugation to plasma proteins using ELISA and western blot analysis.
Plasma samples obtained from the rats were diluted 1:50 in PBS and then further diluted 1:1 with 2× Laemmli non-reducing buffer (Novex). The samples were boiled for 5 min. after which 25 ul of each sample were loaded per well of 8% acrylamide SDS-PAGE precast gel (10 lanes/1 mm gel, Novex). Samples were run in replicates for staining with Coomassie blue and for transfer to nitrocellulose.
Gels were run at a constant voltage of 120 V until the dye fronts reached the bottom of gels. […]

plasma proteins = assay: Western blot of plasma proteins derivatized in vitro with argatroban derivatives; details: human and rat whole blood, 100 μM, 30 minutes; bands from less than 39.5 kDa to greater than 193 kDa
Procedure: (§1) Whole blood samples were treated with argatroban derivatives to yield plasma proteins and red blood cells derivatized with argatroban. Fresh citrated human, rabbit (New Zealand) and rat (Sprague Dawley) whole blood samples were incubated with 100 μM (final concentration) Argatroban-C6-NHS, Argatroban-C16-Maleimide or DMSO, for 30 minutes at room temperature under gentle agitation. After quenching the reaction with 1 mM lysine or cysteine, the whole blood was centrifuged 10 min at 2500 rpm. Labelled plasma were recovered and stored at −20° C. until use. Labelled red blood cells (RBCs) were washed three times in PBS (5 min at 2500 rpm).
Labeled plasma were diluted 1/10 in water. Five μl of diluted plasma (·30 μg protein) were mixed with electrophoresis buffer and separated by SDS-PAGE using an 8% polyacrylamide gel, under non-reducing conditions. Plasma proteins were then transferred onto nitrocellulose sheet with a semi-dry transfer apparatus. Efficacy of transfer was checked by reversible staining with 1% Ponceau Red. The blot was saturated with tris-buffered saline (TBS) containing 5% gelatin and 0.1% Tween 20, for 2H at 37° C. to minimize non-specific binding. After three washes with TBS-1 % Tween 20 (TBS-T), the blot was incubated with rabbit anti-argatroban polyclonal serum from diluted 1/20,000 in TBS containing 1% gelatin and 0.1% Tween 20 (TBS-GT), for 1H30 at RT. […]

red blood cells = assay: Flow cytometry of red blood cells derivatized in vitro with argatroban derivatives; format: cell-based, human, rabbit, rat; details: RBCs from whole blood incubated with 100 μM derivative, each sample
Procedure: as §1
After the last centrifugation, a 10% suspension of labelled red blood cells (RBCS) was made in PBS. Five μl of the suspension was mixed with rabbit anti-argatroban polyclonal sera from Example 4 diluted 1/500 in PBS-1% BSA and incubated at room temperature for 1 hour. After three washes in PBS, the RBCs were incubated with 50 μl of FITC-labeled goat anti-rabbit Ig (BioAtlantic, Nantes) diluted 1/50 in PBS-1% BSA for 1 hour in the dark. After three washes, the RBCs were resuspended in 0.5 ml PBS and fluorescence was detected by flow cytofluorometer (Becton Dickinson).

Row | Compound | plasma protein labelling / association with anti-argatroban antisera (rat plasma proteins) | protein bands identified in derivatized plasma samples (plasma proteins) | mean fluorescence signal relative to argatroban-maleimide derivatized cells (red blood cells) [times]
1 | CC1CNc2c(cccc2S(=O)(=O)N[C@@H](CCCNC(=N)N)C(=O)N2CC[C@@H](C)C[C@@H]2C(=O)O)C1 (stereo partly drawn) [argatroban] | minimal protein association | – | –
2 | CC1CNc2c(cccc2S(=O)(=O)N[C@@H](CCCN=C(N)N)C(=O)N2CC[C@@H](C)C[C@@H]2C(=O)NCCCCCC(=O)ON2C(=O)CCC2=O)C1.Cl.Cl (stereo partly drawn) [argatroban-NHS] | – | Numerous protein bands | 3 to 7
